{
  "source": "paper PMC3961306",
  "about": "“Comparison of the Cancer Gene Targeting and Biochemical Selectivities of All Targeted Kinase Inhibitors Approved for Clinical Use” (PLoS ONE, 2014)",
  "experiment_in_all_cases": "Kinase profiling in a biochemical assay panel (mobility shift assays and ELISA), %-inhibition at 1 μM; selectivity entropy",
  "key": {"[1]": {"molecular_target": "panel of more than 300 wild-type and mutant kinases (313 kinase panel) (Homo sapiens, UniProt P09769)", "settings": "kinase FGR; compound at 1 μM"}, "[2]": {"molecular_target": "panel of more than 300 wild-type and mutant kinases (313 kinase panel) (Homo sapiens, UniProt Q9UM73, L1196M)", "settings": "kinase ALK(L1196M); 1 μM compound"}, "[3]": {"molecular_target": "T1, panel of more than 300 wild-type and mutant kinases (313 kinase panel) (Homo sapiens, UniProt P30530)", "T1 sequence (P30530 26-894)": "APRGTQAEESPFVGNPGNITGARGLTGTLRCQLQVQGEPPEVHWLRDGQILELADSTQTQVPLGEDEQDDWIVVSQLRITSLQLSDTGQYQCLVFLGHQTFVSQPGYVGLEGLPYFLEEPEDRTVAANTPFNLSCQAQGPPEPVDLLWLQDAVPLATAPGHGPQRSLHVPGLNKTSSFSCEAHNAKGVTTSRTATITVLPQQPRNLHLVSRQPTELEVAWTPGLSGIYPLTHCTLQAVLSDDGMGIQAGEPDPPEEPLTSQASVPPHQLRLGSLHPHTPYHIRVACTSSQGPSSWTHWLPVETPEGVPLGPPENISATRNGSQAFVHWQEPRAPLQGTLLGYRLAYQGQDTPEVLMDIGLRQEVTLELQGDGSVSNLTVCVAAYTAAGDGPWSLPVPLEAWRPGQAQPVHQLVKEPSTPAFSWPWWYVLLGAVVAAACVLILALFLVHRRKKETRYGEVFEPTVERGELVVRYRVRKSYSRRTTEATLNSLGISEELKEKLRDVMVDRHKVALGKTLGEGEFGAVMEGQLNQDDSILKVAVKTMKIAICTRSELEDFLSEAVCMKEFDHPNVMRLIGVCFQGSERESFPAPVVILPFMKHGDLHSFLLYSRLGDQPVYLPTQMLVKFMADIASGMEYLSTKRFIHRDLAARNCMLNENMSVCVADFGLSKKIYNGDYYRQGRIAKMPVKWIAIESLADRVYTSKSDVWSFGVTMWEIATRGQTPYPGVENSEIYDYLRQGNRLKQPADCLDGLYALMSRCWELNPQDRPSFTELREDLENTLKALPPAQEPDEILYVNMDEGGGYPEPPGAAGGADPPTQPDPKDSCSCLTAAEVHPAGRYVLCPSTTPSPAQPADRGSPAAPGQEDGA", "settings": "kinase AXL; 1 μM compound"}, "[4]": {"molecular_target": "panel of more than 300 wild-type and mutant kinases (313 kinase panel) (Homo sapiens, UniProt Q14012)", "settings": "kinase CaMK1α; 1 μM compound"}, "[5]": {"molecular_target": "T2, panel of more than 300 wild-type and mutant kinases (313 kinase panel) (Homo sapiens, UniProt Q9BXA7)", "T2 sequence (Q9BXA7 1-367)": "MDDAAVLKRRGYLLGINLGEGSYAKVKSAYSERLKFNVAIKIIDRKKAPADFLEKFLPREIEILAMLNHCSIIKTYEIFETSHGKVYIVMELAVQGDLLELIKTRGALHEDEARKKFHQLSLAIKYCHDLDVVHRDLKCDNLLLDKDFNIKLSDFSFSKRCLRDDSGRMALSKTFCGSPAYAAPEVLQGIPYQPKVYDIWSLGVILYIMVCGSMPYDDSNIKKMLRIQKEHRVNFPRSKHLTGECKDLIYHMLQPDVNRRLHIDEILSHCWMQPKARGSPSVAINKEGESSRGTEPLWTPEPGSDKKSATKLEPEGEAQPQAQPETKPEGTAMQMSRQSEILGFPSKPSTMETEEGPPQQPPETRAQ", "settings": "kinase TSSK1; 1 μM"}, "[6]": {"molecular_target": "T3, panel of more than 300 wild-type and mutant kinases (313 kinase panel) (Homo sapiens, UniProt P52564)", "T3 sequence (P52564 1-334)": "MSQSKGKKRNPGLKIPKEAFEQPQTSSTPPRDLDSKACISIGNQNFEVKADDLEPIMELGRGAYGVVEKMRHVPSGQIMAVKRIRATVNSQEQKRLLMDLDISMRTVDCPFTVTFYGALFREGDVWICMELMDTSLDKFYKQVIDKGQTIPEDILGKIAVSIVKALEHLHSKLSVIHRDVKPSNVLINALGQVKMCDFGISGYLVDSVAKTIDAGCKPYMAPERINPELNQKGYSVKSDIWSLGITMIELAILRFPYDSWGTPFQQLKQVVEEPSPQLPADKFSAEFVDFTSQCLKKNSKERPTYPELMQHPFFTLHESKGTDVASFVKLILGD", "settings": "kinase MAP2K6; compound at 1 μM"}, "[7]": {"molecular_target": "panel of more than 300 wild-type and mutant kinases (313 kinase panel) (Homo sapiens, UniProt Q05655)", "settings": "kinase PKCδ; 1 μM"}, "[8]": {"molecular_target": "panel of more than 300 wild-type and mutant kinases (313 kinase panel) (Homo sapiens, UniProt P80192)", "settings": "kinase MLK1; 1 μM"}, "[9]": {"molecular_target": "panel of more than 300 wild-type and mutant kinases (313 kinase panel) (Homo sapiens, UniProt P22607)", "settings": "kinase FGFR3; compound at 1 μM"}, "[10]": {"molecular_target": "panel of more than 300 wild-type and mutant kinases (313 kinase panel) (Homo sapiens, UniProt P16234)", "settings": "kinase PDGFRα; 1 μM"}, "[11]": {"molecular_target": "panel of more than 300 wild-type and mutant kinases (313 kinase panel) (Homo sapiens, UniProt P42684)", "settings": "kinase ARG; 1 μM compound"}, "[12]": {"molecular_target": "panel of more than 300 wild-type and mutant kinases (313 kinase panel) (Homo sapiens, UniProt P68400)", "settings": "kinase CK2α1/β; 1 μM compound"}},
  "data": [
    {"smiles": "CC(=O)Nc1cccc(-n2c(=O)n(C3CC3)c(=O)c3c(Nc4ccc(I)cc4F)n(C)c(=O)c(C)c32)c1", "note": "[trametinib]", "values": [
      {"measurement": "%-inhibition of FGR", "setting": "[1]", "value": -9, "unit": "%"},
      {"measurement": "%-inhibition, ALK(L1196M)", "setting": "[2]", "value": -3.42, "unit": "%"},
      {"measurement": "%-inhibition, AXL", "setting": "[3]", "value": -1.12, "unit": "%"},
      {"measurement": "%-inhibition, CaMK1α", "setting": "[4]", "value": -2, "unit": "%"},
      {"measurement": "%-inhibition of TSSK1", "setting": "[5]", "value": -5, "unit": "%"},
      {"measurement": "%-inhibition of MAP2K6", "setting": "[6]", "value": -21, "unit": "%"},
      {"measurement": "%-inhibition of PKCδ", "setting": "[7]", "value": -4.75, "unit": "%"},
      {"measurement": "%-inhibition of MLK1", "setting": "[8]", "value": 16, "unit": "%"},
      {"measurement": "%-inhibition of FGFR3", "setting": "[9]", "value": -5.68, "unit": "%"},
      {"measurement": "%-inhibition of PDGFRα", "setting": "[10]", "value": 4.53, "unit": "%"},
      {"measurement": "%-inhibition, ARG", "setting": "[11]", "value": -4, "unit": "%"},
      {"measurement": "%-inhibition, CK2α1/β", "setting": "[12]", "value": -3.4, "unit": "%"}
    ]},
    {"smiles": "CCCS(=O)(=O)Nc1ccc(F)c(C(=O)c2c[nH]c3ncc(-c4ccc(Cl)cc4)cc23)c1F", "note": "[vemurafenib]", "values": [
      {"measurement": "%-inhibition of FGR", "setting": "[1]", "value": 93, "unit": "%"},
      {"measurement": "%-inhibition, ALK(L1196M)", "setting": "[2]", "value": 3, "unit": "%"},
      {"measurement": "%-inhibition, AXL", "setting": "[3]", "value": 20, "unit": "%"},
      {"measurement": "%-inhibition, CaMK1α", "setting": "[4]", "value": -3.18, "unit": "%"},
      {"measurement": "%-inhibition of TSSK1", "setting": "[5]", "value": -4, "unit": "%"},
      {"measurement": "%-inhibition of MAP2K6", "setting": "[6]", "value": 31, "unit": "%"},
      {"measurement": "%-inhibition of PKCδ", "setting": "[7]", "value": -5, "unit": "%"},
      {"measurement": "%-inhibition of MLK1", "setting": "[8]", "value": 10, "unit": "%"},
      {"measurement": "%-inhibition of FGFR3", "setting": "[9]", "value": 15, "unit": "%"},
      {"measurement": "%-inhibition of PDGFRα", "setting": "[10]", "value": 87, "unit": "%"},
      {"measurement": "%-inhibition, ARG", "setting": "[11]", "value": 7, "unit": "%"},
      {"measurement": "%-inhibition, CK2α1/β", "setting": "[12]", "value": -5.39, "unit": "%"}
    ]}
  ]
}
